Several values for one entry are separate records, joined by “and”; a condition that tells them apart may be missing. Identical values can stand only once.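 Briefly, cells in 96-well plates were exposed to five compound concentrations for 48 h, and endpoints were estimated by linear interpolation. GI50 = concentration required for 50% inhibition of growth. TGI denotes the concentration required for complete inhibition of growth.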
Key:
Assay in all cases: growth of human tumour cells (NCI), 48 h
[1] = tested on: NCI-H23 lung
[2] = tested on: COLO 205 colon
[3] = tested on: EKVX NSCLC
[4] = tested on: HCT-15 colon
[5] = tested on: OVCAR-8 ovarian
[6] = tested on: IGROV1 ovarian
[7] = tested on: SK-MEL-28 melanoma
[8] = tested on: MDA-N
[9] = tested on: OVCAR-5 ovarian
[10] = tested on: T-47D breast

Compound | TGI [1] | TGI [2] | TGI [3] | TGI [4] | TGI [5] | TGI [6] | TGI [7] | TGI [8] | TGI [9] | TGI [10] | GI50 [1] | GI50 [8] | GI50 [3] | GI50 [4] | GI50 [9]
Cc1nc2c(n1Cc1ccc(Cl)cc1)C(=O)c1ccccc1C2=O | > 75 µM | > 75 µM | > 75 µM | > 75 µM | > 75 µM | > 75 µM | > 75 µM | – | – | – | – | – | – | – | –
COc1ccccc1C(=O)c1c(N2CCCCC2)c(=O)c1=O | > 100 µM | > 100 µM | > 100 µM | > 100 µM | > 100 µM | > 100 µM | > 100 µM | > 100 µM | > 100 µM | – | – | – | – | – | –
CC(=O)O[C@]12CCCCCCC1C1(O)C(O)CCC[C@H]12 (stereo partly drawn) | > 100 µM | > 100 µM | > 100 µM | > 100 µM | > 100 µM | – | > 100 µM | – | – | – | – | – | – | – | –
Oc1ccc(-c2c3c(nc4c2CCc2ccc(Br)cc2-4)-c2cc(Br)ccc2CC3)cc1 | 38.7 µM | 32.4 µM | 46.1 µM | 35.5 µM | – | 30.7 µM | 38.9 µM | 40.7 µM | 40.6 µM | 42.6 µM | – | – | – | – | –
Cc1cc(S(=O)(=O)Nc2n[nH]c(Nc3ccccc3)n2)c(S)cc1Cl | > 10 µM | > 10 µM | > 10 µM | > 10 µM | > 10 µM | > 10 µM | > 10 µM | – | > 10 µM | > 10 µM | – | – | – | – | –
COc1cc(C2C(Cl)C(=O)N2c2ccc(Br)cc2)cc(I)c1O (stereo not drawn) | > 100 µM | > 100 µM | > 100 µM | > 100 µM | > 100 µM | 24.6 µM | – | > 100 µM | > 100 µM | > 100 µM | – | – | – | – | –
O=C1c2cc([N+](=O)[O-])ccc2NC2C(O)c3ccccc3N12 (stereo not drawn) | 72.5 µM | > 100 µM | 43 µM | > 100 µM | 65 µM | 75.3 µM | – | > 100 µM | > 100 µM | 49.6 µM | – | – | – | – | –
COc1cc2c3c(n(CCCNCCO)c(=O)c2cc1OC)-c1cc2c(cc1C3=O)OCO2 | 0.171 µM and 0.493 µM | 2 µM and 5.42 µM | 1.22 µM | 2.08 µM and 7.76 µM | 5.34 µM | 2.38 µM | – | – | – | 1.52 µM | 0.0437 µM | 2.3 µM | 0.257 µM and 0.557 µM | 0.548 µM and 0.657 µM | 14.4 µM
Cc1ccc2ccccc2c1CC1S(=O)(=O)OCCOS1(=O)=O | 41 µM | 6.1 µM | 29.9 µM | 42.9 µM | 37.1 µM | – | 32.8 µM | 22.2 µM | 24.4 µM | – | – | – | – | – | –
CCCCCCCCCCCCC(=O)NCC(=O)NC(Cc1ccccc1)C(=O)Oc1ccc([N+](=O)[O-])cc1 (stereo not drawn) | > 100 µM | 31.9 µM | > 100 µM | > 100 µM | > 100 µM | > 100 µM | – | > 100 µM | > 100 µM | > 100 µM | – | – | – | – | –
Brc1ccc(N2C[N+](c3ccc(Br)cc3)=NC(c3ccccc3)=N2)cc1 | 31.7 µM and > 100 µM | 33.7 µM and > 100 µM | 31.8 µM and > 100 µM | 33.5 µM and > 100 µM | 41.9 µM and > 100 µM | 29.1 µM and > 100 µM | 39.2 µM and > 100 µM | – | 30.2 µM and > 100 µM | – | – | – | – | – | –
CC(=O)Oc1ccc2cc(Oc3ccc(Cl)cc3)c(=O)oc2c1 | > 100 µM | – | > 100 µM | > 100 µM | 54 µM | > 100 µM | > 100 µM | 78.8 µM | > 100 µM | > 100 µM | – | – | – | – | –
COc1ccc(CNc2nc(NCc3ccc(OC)cc3)nc(NC3CCCCC3)n2)cc1 | – | 5.35 µM | 8.5 µM | 9.52 µM | 7.17 µM | 6.22 µM | > 100 µM | > 100 µM | > 100 µM | > 100 µM | – | – | – | – | –
NC1=NS(=O)(=O)N=C(N)C1=Cc1ccc([N+](=O)[O-])o1 | 31.4 µM | 29.1 µM | 32.5 µM | 30.7 µM | 33.3 µM | 32.1 µM | 29.5 µM | – | 32.9 µM | – | – | – | – | – | –
C#CC(C)(C)Oc1cc(OC)c2c(=O)c3ccccc3n(C)c2c1 | – | 33.7 µM | 74.5 µM | 44.5 µM | 68 µM | 45 µM | 42.6 µM | 31.1 µM | 98.3 µM | 27.9 µM | – | – | – | – | –
O=C1c2ccccc2NC2C(O)c3ccccc3N12 (stereo not drawn) | 84.3 µM | > 100 µM | > 100 µM | > 100 µM | > 100 µM | > 100 µM | – | – | > 100 µM | > 100 µM | – | – | – | – | –
O=C(c1cccs1)N(C(=S)N1CCN(c2ccccc2)CC1)c1ccccc1 | > 100 µM | > 100 µM | – | > 100 µM | > 100 µM | > 100 µM | > 100 µM | – | > 100 µM | – | – | – | – | – | –
O=C1CCSSCCC(=O)Nc2ccccc2N1 | > 100 µM | > 100 µM | > 100 µM | > 100 µM | > 100 µM | > 100 µM | > 100 µM | – | > 100 µM | > 100 µM | – | – | – | – | –

Compound | TGI [1] | TGI [2] | TGI [3] | TGI [4] | TGI [5] | TGI [6] | TGI [7] | TGI [8] | TGI [9] | TGI [10] | GI50 [1] | GI50 [8] | GI50 [3] | GI50 [4] | GI50 [9]
CCCCCCCCCCCCCCCCOCC(CC(F)(F)P(=O)(O)O)OC(C)=O (stereo not drawn) | > 50 µM | > 50 µM | > 50 µM | > 50 µM | – | > 50 µM | > 50 µM | > 50 µM | > 50 µM | – | – | – | – | – | –
O=C1c2cc(Cl)ccc2-n2c(noc2=O)C2CSCN12 (stereo not drawn) | – | > 100 µM | > 100 µM | > 100 µM | > 100 µM | > 100 µM | > 100 µM | > 100 µM | > 100 µM | > 100 µM | – | – | – | – | –
O=c1oc2ccccc2cc1-c1nc2ccc([N+](=O)[O-])cc2o1 | > 100 µM | > 100 µM | > 100 µM | > 100 µM | > 100 µM | > 100 µM | > 100 µM | > 100 µM | – | > 100 µM | – | – | – | – | –
CC1=NN(c2nc(N)nc(/C(C#N)=C/c3ccncc3)n2)C(C)(C)C1 | > 100 µM | > 100 µM | > 100 µM | > 100 µM | > 100 µM | > 100 µM | > 100 µM | – | – | > 100 µM | – | – | – | – | –
COc1ccc(Cn2nc(OCc3ccccn3)c3cc([N+](=O)[O-])ccc32)cc1 | > 100 µM | – | – | > 100 µM | > 100 µM | > 100 µM | > 100 µM | > 100 µM | > 100 µM | > 100 µM | – | – | – | – | –
CCCCN(CCCC)C(=NCc1ccccc1)NC#N | 58.5 µM | 33 µM | 73.5 µM | 28.2 µM | > 100 µM | 59.2 µM | – | – | 81.7 µM | – | – | – | – | – | –
Cc1ccc2c(c1)c(=O)c1c(NCCN(C)C)ccc3nnn2c31 | 15.3 µM | 9.72 µM | 23.6 µM | 20.3 µM | 17.7 µM | 23 µM | 18 µM | – | 12.4 µM | – | – | – | – | – | –
CN(C)c1ccc(-c2nc(-c3cc4c(ccc5ccccc54)oc3=O)cs2)cc1 | – | > 100 µM | > 100 µM | > 100 µM | > 100 µM | > 100 µM | > 100 µM | > 100 µM | > 100 µM | > 100 µM | – | – | – | – | –
COc1cc(C(=O)Nc2nnc(S(N)(=O)=O)s2)cc(OC)c1OC | > 100 µM | > 100 µM | > 100 µM | > 100 µM | > 100 µM | – | > 100 µM | > 100 µM | > 100 µM | > 100 µM | – | – | – | – | –
COc1cc(C2SCC(=O)N2NC(=O)c2ccc(NC(C)=O)cc2)cc(OC)c1OC (stereo not drawn) | > 100 µM | > 100 µM | > 100 µM | > 100 µM | > 100 µM | > 100 µM | > 100 µM | – | > 100 µM | > 100 µM | – | – | – | – | –
O=C(c1ccccc1F)c1c(NCc2ccccc2)c(=O)c1=O | > 100 µM | > 100 µM | > 100 µM | > 100 µM | > 100 µM | > 100 µM | > 100 µM | > 100 µM | > 100 µM | – | – | – | – | – | –
Cc1ccc(S(=O)(=O)Nn2c(-c3ccccc3)c(C#N)c(-c3ccc([N+](=O)[O-])cc3)c(C#N)c2=O)cc1 | – | > 100 µM | > 100 µM | > 100 µM | > 100 µM | > 100 µM | > 100 µM | > 100 µM | > 100 µM | – | – | – | – | – | –
C=CCc1c(O)c2ccccc2[nH]c1=O | > 100 µM | > 100 µM | > 100 µM | > 100 µM | > 100 µM | > 100 µM | > 100 µM | > 100 µM | > 100 µM | – | – | – | – | – | –
CN(C)c1ccc(C(=NNC(=O)c2cc3ccccc3[nH]2)c2ccc(N(C)C)cc2)cc1 | > 32.9 µM | > 20.7 µM | > 100 µM | > 100 µM | > 100 µM | 25.9 µM | – | 1.49 µM | > 45.5 µM | > 100 µM | – | – | – | – | –
COc1ccc(/C=N/Nc2[nH]c(=S)nc3[nH]ncc23)cc1 | > 100 µM | 47.9 µM | > 100 µM | > 100 µM | > 100 µM | 68.2 µM | > 100 µM | – | > 100 µM | 44.2 µM | – | – | – | – | –
O=C(Cn1c2ccc(Br)cc2c2nc3ccccc3nc21)NC1CCCCC1 | > 100 µM | > 100 µM | – | > 100 µM | > 100 µM | > 100 µM | > 100 µM | > 100 µM | > 100 µM | > 100 µM | – | – | – | – | –
Oc1c2cccc1Cc1cccc3c1OCCOCCOCCOCCOc1c(cccc1Cc1cccc(c1O)C3)C2 | > 100 µM | > 100 µM | > 100 µM | > 100 µM | > 100 µM | > 100 µM | > 100 µM | – | > 100 µM | > 100 µM | – | – | – | – | –
c1ccc(C2=NN3CN(N2)c2ccccc2OCCCOc2ccccc23)cc1 | > 100 µM | > 100 µM | > 100 µM | > 100 µM | > 100 µM | > 100 µM | > 100 µM | – | > 100 µM | – | – | – | – | – | –

— PubChem BioAssay (NCI)
